In patent US20070275923A1, “CATIONIC PEPTIDES FOR siRNA [sequence] [sequence]” (NASTECH PHARMACEUTICAL COMPANY INC., priority 2006, published 2007):
Mal = not defined here

Experiments:
[1] = tested on: Mouse tail fibroblast (MTF) cells; test: siRNA cell-uptake and MFI measured by FACS after peptide-mediated transfection of labeled siRNA; assay type: cell-based; details: for % Cell-Uptake / MFI: 200 nM labeled siRNA; for % Cell-Uptake: % of total cells with intracellular labeled siRNA; for intracellular delivery of siRNA (verbal conclusion from cell-uptake and cell viability): conclusion drawn from Table 3; for MFI: relative value, higher = more labeled siRNA entered the cell
Method: SiRNA cell uptake was measured by FACS.
For the instant example, cell-uptake, mean fluorescent intensity (MFI) and cell viability was measured for each peptide. siRNA cell-uptake was measured by the presence of intracellular labeled siRNA. The cell-uptake assay determined the percentage of cells that contain the labeled siRNA. Mean Fluorescence Intensity (MFI) was used to determine the relative mean quantity of labeled siRNA that entered the cells.
A non-transfection, siRNA alone, control was also performed.
Within Table 3, “ND” means no data.

[2] = tested on: Mouse tail fibroblast (MTF) cells; test: in vitro; details: 200 nM siRNA, 100% represents 100% viability
Method: Mouse tail fibroblast (MTF) cells were derived from the tails of C57BL/6J mice. Tails were removed, immersed in 70% ethanol and then cut into small sections with a razor blade. The sections were washed three times with PBS and then incubated in a shaker at 37° C. with 0.5 mg/mL collagenase, 100 units/mL penicillin and 100 μg/mL streptomycin to disrupt tissue. Tail sections were then cultured in complete media (Dulbecco's Modified […] Medium with 20% FBS, 1 mM sodium pyruvate, nonessential amino acids and 100 units/mL penicillin and 100 μg/mL streptomycin) until cells were established. Cells were cultured at 37° C., 5% CO2 in complete media as outlined above.
Cells were be plated per well in a microtiter plate the day before transfection in complete media. The siRNA was be labeled, for example with a FAM, Alexa488, Alexa647 or Cy-5 conjugate. The cationic polymer peptide and siRNA were mixed in the microtiter plate complex with cells previously with OptiMEM. 7-AAD was added to each transfection to measure cell viability. Cells were transfected for three hours at 37° C., 5% CO2. The transfection mixture was removed and the cells were washed with TE buffer for about 10 minutes at 37° C., 5% CO2. Transfected cells were transferred to a V bottom plate and centrifuged. The TE buffer was removed and the transfected cells were resuspended in fluorescence activated cell sorting (FACS) buffer.
A non-transfection, siRNA alone, control was also performed. The peptide PN183 served herein as a positive cell-uptake control.
Cell-uptake is expressed as a percentage of the total cells with intracellular labeled siRNA. Cell Viability is also expressed as a percentage where 100% represents 100% viability. The MFI value is a relative value with a higher MFI value indicating a greater amount of labeled siRNA entered the cell. Within Table 3, “ND” means no data.

| Substance | % Cell-Uptake ([1]; peptide concentration 1 μM) [%] | % Cell-Uptake ([1]; peptide concentration 10 μM) [%] | % Cell-Uptake ([1]; peptide concentration 100 μM) [%] | % Cell Viability ([2]; peptide concentration 1 μM) [%] | % Cell Viability ([2]; peptide concentration 10 μM) [%] | % Cell Viability ([2]; peptide concentration 100 μM) [%] | intracellular delivery of siRNA (verbal conclusion from cell-uptake and cell viability) [1] | MFI ([1]; peptide concentration 1 μM) | MFI ([1]; peptide concentration 10 μM) |
| --- | --- | --- | --- | --- | --- | --- | --- | --- | --- |
| PEG (10 KDa)-Mal-(Lys)10-amide ({PEG 10 kDa-Mal}-KKKKKKKKKK-NH2; reading uncertain; also: printed as PEG (10 KDa)-Mal-(Lys)10-amide) [PN934] | 0.2 | 1.1 | 0.3 | 98.3 | 96.2 | 97.4 |  |  |  |
| PEG (10 KDa)-Mal-(Lys)15-amide ({PEG 10 kDa-Mal}-KKKKKKKKKKKKKKK-NH2; reading uncertain; also: printed as PEG (10 KDa)-Mal-(Lys)15-amide) [PN931] | 0.6 | 0.7 | 0.5 | 97 | 97.7 | 98.4 |  |  |  |
| PEG (2 KDa)-Mal-(Lys)10-amide ({PEG 2 kDa-Mal}-KKKKKKKKKK-NH2; reading uncertain; also: printed as PEG (2 KDa)-Mal-(Lys)10-amide) [PN933] | 0.3 | 0.5 | 0.2 | 97.7 | 98 | 98 |  |  |  |
| PEG (10 KDa)-Mal-(Lys-His)15-amide ({PEG 10 kDa-Mal}-KHKHKHKHKHKHKHKHKHKHKHKHKHKHKH-NH2; reading uncertain) [PN937] | 54.7 | 92.6 |  | 99 | 99.4 |  | effective intracellular delivery of siRNA without negatively impacting cell viability | 3.18 | 6.41 |
| PEG (10 KDa)-Mal-(Lys-His)10-amide ({PEG 10 kDa-Mal}-KHKHKHKHKHKHKHKHKHKH-NH2; reading uncertain) [PN940] | 69.9 | 70.6 |  | 99.1 | 98.4 |  | effective intracellular delivery of siRNA without negatively impacting cell viability | 4.81 | 2.54 |
| PEG (10 KDa)-Mal-Trp-(Lys)30-amide (WKKKKKKKKKKKKKKKKKKKKKKKKKKKKKK; PEG 10 kDa maleimide; C-terminal amide) [PN986] | 0.6 | 0.8 | 2.5 | 97.4 | 97.2 | 93.6 |  |  |  |
| PEG (2 KDa)-Mal-(Lys)20-amide ({PEG 2 kDa-Mal}-KKKKKKKKKKKKKKKKKKKK-NH2; reading uncertain) [PN926] | 0.9 | 1.4 | 1.2 | 97.9 | 98.3 | 98.3 |  |  |  |
| PEG (10 KDa)-Mal-(Lys)25-amide [PN927] | 1.6 | 0.8 | 0.7 | 95.6 | 97 | 97.3 |  |  |  |
| PEG (2 KDa)-Mal-(Lys)25-amide [PN925] | 5.2 | 2.9 | 2.2 | 96.6 | 97.8 | 95.8 |  |  |  |
